Source: patent publication US20220089575A1, “FARNESOID X RECEPTOR AGONISTS AND USES THEREOF” (Metacrine, Inc., priority 2017, published 2022)
Structures can show the parent of a compound that is named as a salt.

biological target: T1, hFXR (Homo sapiens, UniProt Q96RI1); assay: In Vitro FXR Assay (TK): TK-ECRE-luc reporter in transfected CV-1 cells; assay type: cell-based; details: 18 hrs, luminescence, maximum efficacy of <25% of the Fexarmine control classified as '+'
T1 construct: expressed in transfected cells; host or cells: CV-1 cells
T1 sequence (Q96RI1 1-486): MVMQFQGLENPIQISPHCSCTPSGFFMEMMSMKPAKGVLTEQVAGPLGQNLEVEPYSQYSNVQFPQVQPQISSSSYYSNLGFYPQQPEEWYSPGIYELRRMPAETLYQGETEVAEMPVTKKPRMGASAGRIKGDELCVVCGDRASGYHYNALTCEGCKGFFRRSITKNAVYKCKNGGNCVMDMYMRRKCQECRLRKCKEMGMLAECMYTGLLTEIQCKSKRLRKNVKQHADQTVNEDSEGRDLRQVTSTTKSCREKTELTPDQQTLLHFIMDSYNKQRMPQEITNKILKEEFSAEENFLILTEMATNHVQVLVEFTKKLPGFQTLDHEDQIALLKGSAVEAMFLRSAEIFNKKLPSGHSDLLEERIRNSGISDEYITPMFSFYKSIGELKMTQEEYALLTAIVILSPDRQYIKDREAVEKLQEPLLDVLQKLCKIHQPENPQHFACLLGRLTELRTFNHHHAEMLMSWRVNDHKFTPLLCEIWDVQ
T1 sequence (P19793 1-462 partner): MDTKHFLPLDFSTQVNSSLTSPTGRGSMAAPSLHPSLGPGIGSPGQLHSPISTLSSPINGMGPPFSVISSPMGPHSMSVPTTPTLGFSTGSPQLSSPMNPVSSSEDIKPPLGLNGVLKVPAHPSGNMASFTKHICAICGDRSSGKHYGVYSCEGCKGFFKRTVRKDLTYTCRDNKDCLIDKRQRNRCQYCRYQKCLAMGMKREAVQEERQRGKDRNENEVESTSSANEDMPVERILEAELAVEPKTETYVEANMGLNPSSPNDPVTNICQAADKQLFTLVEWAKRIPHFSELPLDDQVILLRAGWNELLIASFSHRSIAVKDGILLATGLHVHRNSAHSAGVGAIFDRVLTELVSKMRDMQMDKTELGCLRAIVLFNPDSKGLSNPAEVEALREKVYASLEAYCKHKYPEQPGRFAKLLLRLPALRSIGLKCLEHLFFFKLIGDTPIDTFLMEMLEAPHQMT
Outline: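 Cells are seeded in charcoal double-stripped FBS medium, transfected overnight with FXR/RXR expression and ECRE-driven luciferase reporter plasmids, then treated with serially diluted compounds for 18 h. Lysates are measured for luciferase light output.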

Row | EC50 [µM] | SMILES
1 | ≤ 0.25 | COc1ccc([C@H]2CC[C@H](CN(c3cc(-c4cnn(C(C)C)c4)ccn3)C(=O)[C@H]3CC[C@H](OC(=O)NCC(C)(C)O)CC3)CC2)nc1C [Compound 6.92, trans-4-((4-(1-Isopropyl-1H-pyrazol-4-yl)pyridin-2-yl)((trans-4-(5-methoxy-6-methylpyridin-2-yl)cyclohexyl)methyl)carbamoyl)cyclohexyl (2-hydroxy-2-methylpropyl)carbamate]
2 | ≤ 0.25 | COc1ccc([C@H]2CC[C@H](CN(c3cccc(-c4cnn(C5CC5)c4)c3)C(=O)[C@H]3CC[C@H](C(=O)OCC(C)C)CC3)CC2)cc1C [Compound 22.04, trans-Isobutyl 4-((3-(1-cyclopropyl-1H-pyrazol-4-yl)phenyl)((trans-4-(4-methoxy-3-methylphenyl)cyclohexyl)methyl)carbamoyl) cyclohexanecarboxylate]
3 | ≤ 0.25 | CCCCC(=O)N[C@H]1CC[C@H](C(=O)N(C[C@H]2CC[C@H](c3ccc(OC)c(C)c3)CC2)c2cccc(-c3cnc(C4CC4)s3)c2)CC1 [Compound 25.17, trans-N-(3-(2-Cyclopropylthiazol-5-yl)phenyl)-N-((trans-4-(4-methoxy-3-methylphenyl)cyclohexyl)methyl)-4-pentanamidocyclohexanecarboxamide]
4 | ≤ 0.25 | CNC(=O)O[C@H]1CC[C@H](C(=O)N(CC23CCC(c4ccc(OC)c(C)c4)(CC2)CC3)c2cccc(-c3cc(C4CC4)ns3)c2)CC1 [Compound 2.08, 4-((3-(3-Cyclopropylisothiazol-5-yl)phenyl)((4-(4-methoxy-3-methylphenyl)bicyclo[2.2.2]octan-1-yl)methyl)carbamoyl)cyclohexyl trans-methylcarbamate]
5 | 0.25 to 1 | COc1ccc([C@H]2CC[C@H](CN(c3cc(-c4cnn(C5CC5)c4)ccn3)C(=O)[C@H]3CC[C@H](C(=O)OC)CC3)CC2)nc1C [Compound 18.17, trans-Methyl 4-((4-(1-cyclopropyl-1H-pyrazol-4-yl)pyridin-2-yl)((trans-4-(5-methoxy-6-methylpyridin-2-yl)cyclohexyl)methyl)carbamoyl) cyclohexanecarboxylate]
6 | ≤ 0.25 | COc1ccc([C@H]2CC[C@H](CN(c3cccc(-c4cnn(C5CC5)c4)c3)C(=O)[C@H]3CC[C@H](OC(=O)NC[C@H](O)CO)CC3)CC2)cc1C [Compound 6.12, trans-4-((3-(1-Cyclopropyl-1H-pyrazol-4-yl)phenyl)((trans-4-(4-methoxy-3-methylphenyl)cyclohexyl)methyl)carbamoyl)cyclohexyl ((S)-2,3-dihydroxypropyl)carbamate]
7 | ≤ 0.25 | COc1ccc([C@H]2CC[C@H](CN(c3cccc(-c4cnc(C5CC5)s4)c3)C(=O)[C@H]3CC[C@H](NC(=O)CCS(C)(=O)=O)CC3)CC2)cc1C [Compound 31.14, trans-N-(3-(2-Cyclopropylthiazol-5-yl)phenyl)-N-((trans-4-(4-methoxy-3-methylphenyl)cyclohexyl)methyl)-4-(3-(methylsulfonyl)propanamido) cyclohexanecarboxamide]
8 | ≤ 0.25 | COc1ccc([C@H]2CC[C@H](CN(c3cc(-c4coc(C5CC5)n4)ccn3)C(=O)[C@H]3CC[C@H](OC(=O)N(C)CCO)CC3)CC2)nc1C [Compound 6.87, trans-4-((4-(2-Cyclopropyloxazol-4-yl)pyridin-2-yl)((trans-4-(5-methoxy-6-methylpyridin-2-yl)cyclohexyl)methyl)carbamoyl)cyclohexyl (2-hydroxyethyl)(methyl)carbamate]
9 | ≤ 0.25 | COc1ccc([C@H]2CC[C@H](CN(c3cccc(-c4cnc(C5CC5)s4)c3)C(=O)[C@H]3CC[C@H](OC(=O)NCCO)CC3)CC2)nc1C [Compound 6.07, trans-4-((3-(2-Cyclopropylthiazol-5-yl)phenyl)((trans-4-(5-methoxy-6-methylpyridin-2-yl)cyclohexyl)methyl)carbamoyl)cyclohexyl (2-hydroxyethyl)carbamate]
10 | ≤ 0.25 | COc1ccc([C@H]2CC[C@H](CN(c3cc(-c4coc(C5CC5)n4)ccn3)C(=O)[C@H]3CC[C@H](OC(=O)N4CC(CN(C)C)C4)CC3)CC2)nc1C [Compound 7.106, trans-4-((4-(2-Cyclopropyloxazol-4-yl)pyridin-2-yl)((trans-4-(5-methoxy-6-methylpyridin-2-yl)cyclohexyl)methyl)carbamoyl)cyclohexyl 3-((dimethylamino)methyl)azetidine-1-carboxylate]
11 | ≤ 0.25 | COc1ccc([C@H]2CC[C@H](CN(c3cccc(-c4cnn(C5CC5)c4)c3)C(=O)[C@H]3CC[C@H](OC(=O)N4CC(C[S+](C)[O-])C4)CC3)CC2)cc1C (stereo partly drawn) [Compound 8, trans-4-((3-(1-Cyclopropyl-1H-pyrazol-4-yl)phenyl)((trans-4-(4-methoxy-3-methylphenyl)cyclohexyl)methyl)carbamoyl)cyclohexyl 3-((methylsulfinyl)methyl)azetidine-1-carboxylate]
12 | ≤ 0.25 | COc1ccc([C@H]2CC[C@H](CN(c3cccc(-c4cnn(C(C)C)c4)c3)C(=O)[C@H]3CC[C@H](OC(=O)NCCO)CC3)CC2)nc1C [Compound 6.15, trans-4-((3-(1-Isopropyl-1H-pyrazol-4-yl)phenyl)((trans-4-(5-methoxy-6-methylpyridin-2-yl)cyclohexyl)methyl)carbamoyl)cyclohexyl (2-hydroxyethyl)carbamate]
13 | ≤ 0.25 | CNC(=O)OCC(=O)N[C@H]1CC[C@H](C(=O)N(C[C@H]2CC[C@H](c3ccc(OC)c(C)c3)CC2)c2cccc(-c3cnc(C4CC4)s3)c2)CC1 [Compound 25.15, 2-((trans-4-((3-(2-Cyclopropylthiazol-5-yl)phenyl)((trans-4-(4-methoxy-3-methylphenyl)cyclohexyl)methyl)carbamoyl)cyclohexyl)amino)-2-oxoethyl methylcarbamate]
14 | ≤ 0.25 | COc1ccc([C@H]2CC[C@H](CN(c3cc(-c4coc(C5CC5)n4)ccn3)C(=O)[C@H]3CC[C@H](OC(=O)N4CC(OC)C4)CC3)CC2)nc1C [Compound 7.76, trans-4-((4-(2-Cyclopropyloxazol-4-yl)pyridine-2-yl)((trans-4-(5-methoxy-6-methylpyridin-2-yl)cyclohexyl)methyl)carbamoyl)cyclohexyl 3-methoxyazetidine-1-carboxylate]
15 | ≤ 0.25 | COc1ccc([C@H]2CC[C@H](CN(c3cc(-c4coc(C5CC5)n4)ccn3)C(=O)[C@H]3CC[C@H](OC(=O)NCC(C)O)CC3)CC2)nc1C (stereo partly drawn) [Compound 6.72, trans-4-((4-(2-Cyclopropyloxazol-4-yl)pyridin-2-yl)((trans-4-(5-methoxy-6-methylpyridin-2-yl)cyclohexyl)methyl)carbamoyl)cyclohexyl (2-hydroxypropyl)carbamate]
16 | ≤ 0.25 | CCc1nc(-c2ccnc(N(C[C@H]3CC[C@H](c4ccc(OC)c(C)n4)CC3)C(=O)[C@H]3CC[C@H](OC(=O)NCCO)CC3)c2)co1 [Compound 6.85, trans-4-((4-(2-Ethyloxazol-4-yl)pyridin-2-yl)((trans-4-(5-methoxy-6-methylpyridin-2-yl)cyclohexyl)methyl)carbamoyl)cyclohexyl (2-hydroxyethyl)carbamate]
17 | ≤ 0.25 | COc1ccc([C@H]2CC[C@H](CN(c3cccc(-c4cnn(C5CC5)c4)c3)C(=O)[C@H]3CC[C@H](OC(=O)N4CCSCC4)CC3)CC2)cc1C [Compound 6.27, trans-4-((3-(1-Cyclopropyl-1H-pyrazol-4-yl)phenyl)((trans-4-(4-methoxy-3-methylphenyl)cyclohexyl)methyl)carbamoyl)cyclohexyl thiomorpholine-4-carboxylate]
18 | ≤ 0.25 | COC(=O)N[C@H]1CC[C@H](C(=O)N(C[C@H]2CC[C@H](c3ccc(OC)c(C)c3)CC2)c2cccc(-c3cnc(C4CC4)s3)c2)CC1 [Compound 25, Methyl (trans-4-((3-(2-cyclopropylthiazol-5-yl)phenyl)((trans-4-(4-methoxy-3-methylphenyl)cyclohexyl)methyl)carbamoyl)cyclohexyl)carbamate]
19 | 0.25 to 1 | CNCCO[C@H]1CC[C@H](C(=O)N(C[C@H]2CC[C@H](c3ccc(OC)c(C)c3)CC2)c2cccc(-c3cnc(C4CC4)s3)c2)CC1 [Compound 11, trans-N-(3-(2-Cyclopropylthiazol-5-yl)phenyl)-N-((trans-4-(4-methoxy-3-methylphenyl)cyclohexyl)methyl)-4-(2-(methylamino)ethoxy) cyclohexanecarboxamide hydrochloride]
20 | ≤ 0.25 | CNC(=O)[C@H]1CC[C@H](C(=O)N(C[C@H]2CC[C@H](c3ccc(OC)c(C)c3)CC2)c2cccc(-c3cnc(OC)s3)c2)CC1 [Compound 24, trans-N^1-((trans-4-(4-Methoxy-3-methylphenyl)cyclohexyl)methyl)-N^1-(3-(2-methoxythiazol-5-yl)phenyl)-M-methylcyclohexane-1,4-dicarboxamide]
